Source: patent US12089542B2, “Subsurface drip irrigation (SDI) lines enhanced with essential oils” (Metzerplas Cooperative Agricultural Organization Ltd., priority 2020, dated 2024)

Tests used:
mash bean seeds [1] = experiment: Combination of active ingredients: mash bean root development in open jars with ARC2 films; type: in vivo; conditions: 7% in ARC2 film
Protocol: In order to evaluate the efficacy of Thymol relative to another EO, and to see if combination could result in synergistic activity, an additional experiment was conducted using ARC2 polymer (Cloisite 15A 10 wt % nanoclay) with mash bean seeds in open jars. Cotton wool was placed in the jar as a substrate in the center of which the seeds were sown. Three types of EOs were incorporated into the ARC2 polymer films (7% Thymol, 7% pelargonic acid, and 3.5% Thymol/3.5% pelargonic acid) with a dimension of 1 cm width, 3 cm length, and 3 mm thickness were tested and compared to a reference sample (without EO). Each film was placed adjacent to the jar wall. Seeds were watered once a day for 14 weeks.

mash bean seeds [2] = experiment: Inhibition of root penetration in subsurface pipes by Thymol-active based film (5%), lab planters; type: in vivo
Text: Holes were drilled at the bottom for water drainage. PE pipe was specially manufactured by METZERPLAS (Israel), with a coating that prevents diffusion of materials through the PE matrix. Pipe diameter 16 mm with a wall thickness of 0.9 mm. A VARDIT 16-type adjusted dripper was selected, with a flow rate of 1.2 liters/hour for each dripper spaced 20 cm apart across the pipes, which were placed 5 cm from the planter base. An ARC1-based active film (Cloisite 15 3% wt and Thymol 5%) was inserted to one pipe [FIG. 2] and its activity was compared with another pipe with no active agent, used as a negative control.
The planting substrate was Perlite mixed with Hydroton, and mash bean seeds were sown after surface-sterilization with 10% […], for 20 min, to avoid possible inhibition caused by toxins from fungi or bacteria. Seeds were then rinsed with an abundance of distilled water 20 g of seeds were sown 7 cm deep in each flowerbox.
A high ratio of seeds:volume was intentionally used to increase the chance of root intrusion.
Irrigation regimen was set at four times a day for ten minutes. The experiment was conducted in a lab, with light supplied 24 hours a day, and room temperature±25° C. After twenty days, the drippers were opened to examine whether the Thymol was able to function as an anti-root (AR) agent and protect the SDI pipe from root intrusion.

tomato seeds = experiment: Bioassay of Thymol activity on plant health and development, tomato; type: in vivo; conditions: ARC2 film (7% Thymol) adjacent to box wall
Protocol: (§1) In order to determine the suitability of Thymol as an anti-root (AR) agent in a variety of agricultural settings, Thymol activity was tested on different seed types.
(§2) The experiment was conducted for two months during the spring with an ambient temperature of ±30° C. Plastic boxes of 30 cm length, 20 cm width, and 15 cm height were filled with German Kalsmann peat, coconut fiber, ventilation materials, and slow-release fertilizers as planting substrate.
(§3) Cucumber, tomato, beetroot, and sweet corn seeds were each sown in two boxes (8 boxes in total); one box of each seed type was used as a negative control and in the other box (experimental) an ARC2-based active film (Cloisite 15A 10 wt % nanoclay; 7% Thymol) was placed adjacent to the box wall to assess Thymol activity [FIG. 12]. The film folded in half, corresponding to the length and width dimensions of the box.
(§4) For each seed type, both boxes were placed outdoors according to the sun intensity the plant requires. Each seed type was given an appropriate amount of water evenly, using a can.

beetroot seeds = experiment: Bioassay of Thymol activity on plant health and development, beetroot; type: in vivo; conditions: ARC2 film (7% Thymol) adjacent to box wall
Protocol: as §1, §2, §3, §4

helianthus seeds = experiment: Helianthus seeds in planters with 7% Thymol (ARC2 film in pipe); type: in vivo
Protocol: In order to evaluate the effect of increasing the amount of Thymol, an additional experiment was conducted using ARC2 polymer (Cloisite 15A 10 wt % nanoclay; 7% Thymol). The experiment was conducted on helianthus seeds during the summer season, temperature above 30° C., for two months.
Planter dimensions were 110 cm length, 10 cm width, and 15 cm height. The pipes were placed 5 cm from the planter base, where holes were drilled for drainage.
One planter contained negative control pipe, while ARC2-based active film (experimental) was inserted to pipe in experimental planters as in examples 1 and 2.
Potting soil for plant growth was a mixture of German Kalsmann peat, coconut fiber, ventilation materials, and slow-release fertilizers, mixed with Perlite.
Thirty seeds were sown in two columns at 1 cm depth and 7 cm intervals.
Irrigation cycle was set twice daily for three minutes.
As in previous examples, the number of seeds sown relative to the planter size was large and irrigation regime was minimal to increase the root-intrusion tendency.

[3] = Quantitative analysis of Thymol concentration remaining in the film (extraction, Gibbs reagent, UV-visible); type: physicochemical
Protocol: The amount of Thymol remaining in the films immediately after processing and at the end of each experiment was determined by UV-visible 1650PC spectrophotometer (Shimadzu), through extraction. The procedure is suitable for different phenolic EOs and is based on Gibbs reagent (2,6-dichlorobenzoquinone 4-chloroimine).
Briefly, different Thymol-active films were cut to small pieces, weighed, and extracted by refluxing with 2-propanol at a ratio of 500 mg film/25 ml propanol, for 2 hours. To 100 ml volumetric flasks containing 10 ml of a standard Buffer solution of Boric Acid+Potassium Chloride, 1 ml of the extraction solution, 4 mL of 2-propanol, and 1 ml of Gibbs reagent solution was added. The solution was allowed to stand for 15 min to enable the reaction to occur fully. The resulting violet water-soluble dye has a maximum absorption at 590 nm wavelength. Thymol concentration retained in the film, as a proportion of the nominal concentration, was calculated from a calibration curve. Two replicates were measured for each standard.

root growth = experiment: Cumulative data from examples 1 through 4: Thymol concentration and root growth; type: in vivo; conditions: low concentrations; at higher concentrations anti-root activity
cucumber seeds = experiment: Bioassay of Thymol activity on plant health and development, cucumber; type: in vivo
Protocol: as §1, §2, §3, §4

sweet corn seeds = experiment: Bioassay of Thymol activity on plant health and development, sweet corn; type: in vivo; conditions: ARC2 film (7% Thymol) adjacent to box wall
Protocol: as §1, §2, §3, §4

Sorghum = experiment: Greenhouse experiment using Sorghum and 5% Thymol, root clogging of SDI drippers; type: in vivo; conditions: for % Clogged drippers / Clogged drippers / Clean drippers: 2.5 months greenhouse; for roots accumulated on top of the pipe in the area of the drippers' holes: FIG. 7; for Clogged drippers / Clean drippers: number of drippers; for Clogged drippers: ARC1 film in pipe or Treflan pipe
Protocol: In order to confirm the results of Example 1 in a more agricultural settind and in a different pant variety, Sorghum seeds were grown in a TROPICO-type greenhouse (TOP Company), at Kibbutz Metzer (Israel) during the summer season, for 2.5 months.
Individual PP (polypropylene) cases were built for seed beds, with the dimensions of 40 cm height, 20 cm width, and 5 meters length. ARC1-based active films were inserted into PE SDI pipes as in Example 1, and activity of thymol as a root inhibitor was compared to that of TREFLAN chemical herbicide (positive control), as well as to herbicide free pipe used as a negative control.
The pipes were placed 15 cm above the bed's bottom, mimicking a buried drip irrigation situation at a realistic ‘field depth’ for the SDI system. Holes were drilled at the bed's edges to allow easy access to the initial and the last pipe and to enable simple irrigation and fertilization control.
The seed beds were filled with ‘Ram 8’-type (Tuff Merom Golan), a professional planting substrate, 80% coarse peat/20% coconut composition.
“Bulldozer”-type sorghum seeds, supplied by CTS Company, were sown. Sorghum is categorized as a classical field-growth plant and characterized by a robust and aggressive root system with secondary growth ability after ‘green’ harvesting without inflorescence.
The sowing process corresponded to field sowing. Eight seeds per meter were sown at 2.5 cm deep, with 12.5 cm sowing intervals.
Irrigation regime was determined differentially, taking into consideration climate data and irrigation type. During the first week from sowing, the irrigation carried out using sprinklers without fertilization. After sprouting and germination, the irrigation was performed through underground drip irrigation only, accompanied by proportional fertilization, “fertilizer-all”-type 17-10-27, with trace elements. The level of fertilizer in irrigation water was about 30 ppm nitrogen. In contrast to example 1, irrigation and fertilization regimes performed were minimal to create ‘starvation’ and cause the roots to aggressively migrate towards the drippers' holes in search of water and fertilizer.

[4] = beds opened at end of experiment

SMILES: CCCCCCCCC(=O)O [Pelargonic acid]
- effect on root growth (mash bean seeds [1]; after two weeks, FIG. 18): inhibitory effect on root growth compared to the reference sample, but the effect was less

SMILES: Cc1ccc(C(C)C)c(O)c1 [Thymol]
- root inhibitory effect (mash bean seeds [1]; after 3 weeks, FIG. 19): best root inhibitory effect
- root penetration of drippers (mash bean seeds [2]; drippers opened after twenty days, ARC1 film, Thymol 5%, in pipe): remained free of roots
- number of germinated seeds compared with reference planter (mash bean seeds [2]; first four days, ARC1-based active film (Cloisite 15 3% wt, Thymol 5%) inserted in pipe): greater
- growth rate of roots and seedlings compared with reference planter (mash bean seeds [2]; up to two weeks, ARC1 film, Thymol 5%, in pipe): faster
- germination rate compared with control box (tomato seeds): faster
- germination rate compared with control box (beetroot seeds): faster
- germination rate compared with negative control planter (helianthus seeds; ARC2 film (Cloisite 15A 10 wt %, 7% Thymol) in pipe): faster
- number of helianthus flowers (helianthus seeds; after 55 days, control planter 19): 24
- drippers penetrated by roots (helianthus seeds; out of five drippers, end of experiment (two months), control three out of five): two
- seedling growth rate compared with control planter (helianthus seeds; until plants reached maximum height): remained faster
- amount of Thymol remaining in the film ([3]; after 2 months in soil, film in pipe, welded outside or at a distance): around 5 % of the amount nominally incorporated in the film prior to processing
- Thymol concentration in the film below which inhibitory activity decreases ([3]; initial concentration at the beginning of the manufacturing process): about 9 % of the initial concentration
- Thymol concentration remaining in the film, sorghum experiment versus mash bean experiment ([3]; two and a half months (sorghum) vs two months (mash bean)): slightly higher
- concentration at which Thymol can stimulate root growth (root growth): < 0.4 wt %
- germination rate compared with control box (cucumber seeds; ARC2 film (7% Thymol) adjacent to box wall): faster
- number of germinated seeds compared with control box (cucumber seeds; FIG. 13): greater
- seedlings' growth rate compared with control box (cucumber seeds; FIG. 13, after 43 days): continued to be faster
- time until 6 seeds germinated (cucumber seeds; FIG. 13, control box 17 days): 11 days
- germination rate compared with control box (sweet corn seeds): faster
- % Clogged drippers (Sorghum; listed as Thymol 1): 0%
- % Clogged drippers (Sorghum; listed as Thymol 2): 4.76%
- roots accumulated on top of the pipe in the area of the drippers' holes (Sorghum; [4]): lower than that obtained for the negative control
- effect on roots development / harm to the crop under cultivation (Sorghum; in vivo): less harmful to the crop under cultivation than Treflan
- efficacy in deterring roots from dripper openings relative to Treflan (Sorghum; in vivo): roughly as effective as Treflan
- Clogged drippers (Sorghum): one
- Clogged drippers (Sorghum; listed as Thymol 1): 0
- Clogged drippers (Sorghum; listed as Thymol 2): 1
- Clean drippers (Sorghum; listed as Thymol 1): 15
- Clean drippers (Sorghum; listed as Thymol 2): 20

SMILES: CCCN(CCC)c1c([N+](=O)[O-])cc(C(F)(F)F)cc1[N+](=O)[O-] [Treflan, trifluralin, reference compound]
- % Clogged drippers (Sorghum): 0%
- soil moisture in proximity to drippers (Sorghum; beds opened at end of experiment, FIG. 6, compared with negative control): higher degree of moisture
- roots accumulated on top of the pipe in the area of the drippers' holes (Sorghum; [4]): no root concentration areas are observed
- root state of drippers (Sorghum; end of experiment): root-clean
- Clean drippers (Sorghum): 20
- Clogged drippers (Sorghum): 0
- effect on roots development / harm to the crop under cultivation (Sorghum; subjective evidence): more aggressive and detrimental effect on roots development
